Laboratory results: patent US20140378306A1, “USE OF 5-PHENYL- OR 5-BENZYL-2 ISOXAZOLINE-3 CARBOXYLATES FOR IMPROVING PLANT YIELD” (Bayer Intellectual Property GmbH, priority 2011, published 2014)

Columns and labels:
[1] = tested on: winter oilseed rape; test: Field trial: grain yield effects on winter oilseed rape, sequential application of isoxadifen; format: in vivo
Excerpt: (§1) The trials have been carried out under natural field conditions (plot trials, 10 square meter plots, 2-4 replications).
(§2) The applications have been done with seed treatment, pre- or post-emergence treatments straight (alone, 1 application) or sequential treatments e.g. seed treatment followed by pre-emergence and/or post-emergence spray applications. The pre- or post-emergence applications were made with spray applications using 100-300 l/water per hectare. The growth stage of the crops species at the time of application are reported in the result tables. The dose rates of the herbicidal active ingredients applied alone respective in sequential application are also described in the result tables.
(§3) The assessments have been done via visual ratings (0-100% scale) or counting. The trials have been harvested after crops reached the full maturity. After the harvest the total weight of kernels/seeds/beets per plot was measured. The results are reported as means over 2-4 replications. The time between applications and assessments or countings/harvest are described in the result tables as well.
(§4) The active ingredients have been applied to the untreated, dry seeds together with a carrier. After a short period of time to let the seeds dry, they were ready to be sown in the pot or field using standard equipments.

[2] = tested on: sugarbeets; test: Field trial: emergence of sugarbeets, seed treatment with isoxadifen; format: in vivo, sugarbeet; details: seed treatment 0.015 mg ai/seed
Excerpt: as §1, §2, §3, §4

[3] = tested on: winter wheat; test: Field trial: grain yield effects on winter wheat, postemergence treatment with isoxadifen-ethyl; format: in vivo; details: 84 days after application
Excerpt: as §1, §2, §3

[4] = tested on: spring wheat; test: Field trial: grain yield effects on spring wheat, postemergence treatment with isoxadifen-ethyl; format: in vivo; details: 74 days after application
Excerpt: as §1, §2, §3

[5] = tested on: spring wheat; test: Field trial: grain yield effects on spring wheat, seed treatment with isoxadifen-ethyl; format: in vivo; details: 158 days after application
Excerpt: as §1, §2, §3, §4

[6] = tested on: sugarbeet; test: Field trial: yield effects on sugarbeet, sequential application of isoxadifen-ethyl; format: in vivo
Excerpt: as §1, §2, §3, §4

[7] = tested on: sugarbeets; test: Field trial: sugar yield of sugarbeets, sequential application; format: in vivo, sugarbeet
Excerpt: as §1, §2, §3, §4

[8] = tested on: corn; test: Field trial: grain yield effect on corn, sequential treatment with isoxadifen-ethyl; format: in vivo
Excerpt: as §1, §2, §3, §4

[9] = tested on: spring oilseed rape (canola); test: Field trial: grain yield effects on spring oilseed rape (canola), postemergence treatment with IDF-Et + TBC; format: in vivo; details: 92 days after application
Excerpt: The trials have been carried out under natural field conditions (plot trials, 10 square meter plots, 2-4 replications). The applications have been done with seed treatment, pre- or post-emergence treatments straight (alone, 1 application) or sequential treatments e.g. seed treatment followed by pre-emergence and/or post-emergence spray applications. The pre- or post-emergence applications were made with spray applications using 100-300 l/water per hectare. The growth stage of the crops species at the time of application are reported in the result tables. The dose rates of the herbicidal active ingredients applied alone respective in sequential application are also described in the result tables. The assessments have been done via visual ratings (0-100% scale) or counting. The trials have been harvested after crops reached the full maturity. After the harvest the total weight of kernels/seeds/beets per plot was measured. The results are reported as means over 2-4 replications. The time between applications and assessments or countings/harvest are described in the result tables as well.

[10] = grain yield relative to UTC (100%), 100 g ai/ha post-emergence
[11] = grain yield, 100 g ai/ha post-emergence

O=C(O)C1=NOC(c2ccccc2)(c2ccccc2)C1 [IDF, 5,5-diphenyl-2-isoxazolinecarboxylic acid]
Yield ([1]; 3 g ai/kg seed fb 3 × 50 g ai/ha post (4-6 leaves, stem elongation, beginning of flowering), grain yield at harvest, 102 days after application): 2.63 t/ha
Relative ([1]; grain yield relative to UTC (100%), 3 g ai/kg seed fb 3 × 50 g ai/ha post): 105%
Difference(%) vs. UTC ([1]; grain yield, 3 g ai/kg seed fb 3 × 50 g ai/ha post): +5%
plants/18 row meters ([2]; emergence of sugarbeets, counting 28 days after planting): 74 plants/18 row meters
Relative ([2]; emergence relative to UTC (100%), sugarbeets, 28 days after planting): 113.8%
Difference(%) vs. UTC ([2]; emergence, sugarbeets, 28 days after planting): +13.8%

CCOC(=O)C1=NOC(c2ccccc2)(c2ccccc2)C1 [IDF-Et, ethyl 5,5-diphenyl-2-isoxazolinecarboxylate]
Yield ([3]; 100 g ai/ha post-emergence spring, beginning of stem elongation, grain yield at harvest): 8.09 t/ha
Relative % [3, 10]: 109.0%
Difference(%) vs. UTC [3, 11]: +9%
Yield ([4]; 100 g ai/ha post-emergence spring, flag leaf/beginning of ear heading, grain yield at harvest): 7.67 t/ha
Relative % [4, 10]: 113.2%
Difference(%) vs. UTC [4, 11]: +13.2%
Relative % ([5]; grain yield relative to UTC (100%), seed treatment 0.5 g ai/kg seed): 108.7%
Difference(%) vs. UTC ([5]; grain yield, seed treatment 0.5 g ai/kg seed): +8.7%
Yield ([5]; seed treatment 0.5 g ai/kg seed (prior planting), grain yield at harvest): 6.58 t/ha
Yield ([6]; 0.015 mg ai/seed fb 3 × 50 g ai/ha post (2-4, 6-8, 10-12 leaves), yield of beets by weight at harvest, 162 days after application): 65.3 t/ha
Relative ([6]; beet yield relative to UTC (100%), 0.015 mg ai/seed fb 3 × 50 g ai/ha post): 111.2%
Difference(%) vs. UTC ([6]; beet yield, 0.015 mg ai/seed fb 3 × 50 g ai/ha post): +11.2%
Sugar Yield ([7]; 0.015 mg ai/seed fb 3 × 50 g ai/ha post (2-4, 6-8, 10-12 leaves), sugar yield by weight at harvest, 162 days after application): 6.19 t/ha
Relative ([7]; sugar yield relative to UTC (100%), 0.015 mg ai/seed fb 3 × 50 g ai/ha post): 108.6%
Difference(%) vs. UTC ([7]; sugar yield, 0.015 mg ai/seed fb 3 × 50 g ai/ha post): +8.6%
Yield ([8]; 0.5 g ai/kg seed fb 3 × 50 g ai/ha post (2-4, 6-8, 10-12 leaves), grain yield at harvest, 72 days after application): 10.80 t/ha
Relative ([8]; grain yield relative to UTC (100%), 0.5 g ai/kg seed fb 3 × 50 g ai/ha post): 124%
Difference(%) vs. UTC ([8]; grain yield, 0.5 g ai/kg seed fb 3 × 50 g ai/ha post): +24%

CC(C)(C)C(O)(CCc1ccc(Cl)cc1)Cn1cncn1 (stereo not drawn) [TBC, tebuconazole]
Relative % ([9]; grain yield relative to UTC (100%), canola, TBC 150, IDF-Et 100 g ai/ha): 101.8%
Difference(%) vs. UTC ([9]; grain yield, canola, TBC 150, IDF-Et 100 g ai/ha): +1.8%
Yield ([9]; spring oilseed rape (canola), TBC 150 g ai/ha, IDF-Et 100 g ai/ha, post-emergence spring, beginning of flowering, grain yield at harvest): 3.98 t/ha
